Laboratory results: patent publication US4024277A, “Phosphoro-aminosulfenyl derivatives of benzofuran carbamates” (priority 1975, dated 1977)

How the values were obtained:
plum curculio = experiment: Initial insecticidal activity, plum curculio; type: in vivo, Conotrachelus nenuphar (Herbst); details: Conotrachelus nenuphar, 48-hour exposure, read-out: % Kill, Plum Curculio
Summary of the method: (§1)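 Candidate insecticide solutions were sprayed or dipped onto plants or containers, infested before or after treatment depending on species. Mortality was read after a 48-hour exposure, alongside a solvent-only control.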

southern armyworm [1] = experiment: Initial insecticidal activity, southern armyworm; type: in vivo, Spodoptera eridania (Cramer); details: Spodoptera eridania, 48-hour exposure, read-out: % Kill, Southern Armyworm
Summary of the method: as §1

pea aphid [2] = experiment: Seven-day residual insecticidal activity, pea aphid; type: in vivo, Acyrthosiphon pisum (Harris); details: Acyrthosiphon pisum, 48-hour exposure, read-out: % Kill, Pea Aphid
Description: (§2) b. Seven-Day Residual Insecticidal Activity
(§3) In this test, a candidate insecticide, in solution, is applied to uninfested plants or containers by dipping or spraying. A seven-day holding period is necessary before infestation. A 48-hour exposure period is observed before evaluation of the tests. The insect species used in this type of test are the same as those listed under initial activity.

large milkweed bug [3] = experiment: Initial insecticidal activity, milkweed bug; type: in vivo, Oncopeltus fasciatus (Dallas); details: Oncopeltus fasciatus, 48-hour exposure, read-out: % Kill, Milkweed Bug
Summary of the method: as §1

Mexican bean beetle [4] = experiment: Seven-day residual insecticidal activity, Mexican bean beetle; type: in vivo, Epilachna varivestis Mulsant; details: Epilachna varivestis, 48-hour exposure, read-out: % Kill, Mexican Bean Beetle
Description: as §2, §3

[5] = test system: female house flies (resistant); experiment: Level II topical test, house flies; type: in vivo, Musca domestica Linnaeus; details: HF (female, resistant), one microgram topically per insect
Mexican bean beetle [6] = experiment: Initial insecticidal activity, Mexican bean beetle; type: in vivo, Epilachna varivestis Mulsant; details: Epilachna varivestis, 48-hour exposure, read-out: % Kill, Mexican Bean Beetle
Summary of the method: as §1

large milkweed bug [7] = experiment: Seven-day residual insecticidal activity, milkweed bug; type: in vivo, Oncopeltus fasciatus (Dallas); details: Oncopeltus fasciatus, 48-hour exposure, read-out: % Kill, Milkweed Bug
Description: as §2, §3

pea aphid [8] = experiment: Initial insecticidal activity, pea aphid; type: in vivo, Acyrthosiphon pisum (Harris); details: Acyrthosiphon pisum, 48-hour exposure, read-out: % Kill, Pea Aphid
Summary of the method: as §1

twospotted spider mite = experiment: Initial insecticidal activity, twospotted spider mite; type: in vivo, Tetranychus urticae Koch; details: Tetranychus urticae, 48-hour exposure, read-out: % Kill, Twospotted Spider Mite
Summary of the method: as §1

house flies = experiment: Level I immersion test, house flies; type: in vivo, Musca domestica Linnaeus; details: HF, 5 mg/milliliter
confused flour beetle [9] = experiment: Initial insecticidal activity, confused flour beetle; type: in vivo, Tribolium confusum Jacquelin duVal; details: Tribolium confusum, 48-hour exposure, read-out: % Kill, Confused Flour Beetle
Summary of the method: as §1

German cockroaches [10] = experiment: Level II topical test, German cockroaches; type: in vivo, Blattella germanica (Linnaeus); details: GC (male), one microgram topically per insect
southern armyworm [11] = experiment: Seven-day residual insecticidal activity, southern armyworm; type: in vivo, Spodoptera eridania (Cramer); details: Spodoptera eridania, 48-hour exposure, read-out: % Kill, Southern Armyworm
Description: as §2, §3

German cockroaches [12] = experiment: Level I immersion test, German cockroaches; type: in vivo, Blattella germanica (Linnaeus); details: GC (male), 5 mg/milliliter
confused flour beetle [13] = experiment: Seven-day residual insecticidal activity, confused flour beetle; type: in vivo, Tribolium confusum Jacquelin duVal; details: Tribolium confusum, 48-hour exposure, read-out: % Kill, Confused Flour Beetle
Description: as §2, §3

Work on `CCOP(=O)(OCC)N(CC)SN(C)C(=O)Oc1cccc2c1OC(C)(C)C2` [8(c), 2,3-Dihydro-2,2-dimethyl-7-benzofuranyl [(N-diethoxyphosphinyl) (N-ethyl)aminosulfenyl][methyl]carbamate] yielded a mortality at 39 ppm (plum curculio; 39 ppm) of 0%, a mortality at 156 ppm (plum curculio; 156 ppm) of 45% and a mortality at 1250 ppm (plum curculio; 1250 ppm) of 100%. For the same compound, the mortality at 39 ppm (southern armyworm [1]; 39 ppm) was 0%, the mortality at 156 ppm (southern armyworm [1]; 156 ppm) was 59% and the mortality at 1250 ppm (southern armyworm [1]; 1250 ppm) was 100%. For the same compound, the mortality at 39 ppm (pea aphid [2]; 39 ppm) was 0%, the mortality at 156 ppm (pea aphid [2]; 156 ppm) was 0% and the mortality at 1250 ppm (pea aphid [2]; 1250 ppm) was 0%. For the same compound, the mortality at 39 ppm (large milkweed bug [3]; 39 ppm) was 100%, the mortality at 156 ppm (large milkweed bug [3]; 156 ppm) was 100% and the mortality at 1250 ppm (large milkweed bug [3]; 1250 ppm) was 100%. For the same compound, the mortality at 39 ppm (Mexican bean beetle [4]; 39 ppm) was 12%, the mortality at 156 ppm (Mexican bean beetle [4]; 156 ppm) was 93% and the mortality at 1250 ppm (Mexican bean beetle [4]; 1250 ppm) was 100%. For the same compound, the “% Knockdown” value ([5]; 10 minutes) was 0%, the mortality at 0.001 mg ([5]; Musca domestica, topical, read-out: % Kill) was 33% and the mortality at 39 ppm (Mexican bean beetle [6]; 39 ppm) was 100%. It also gave a mortality at 156 ppm (Mexican bean beetle [6]; 156 ppm) of 100%, a mortality at 1250 ppm (Mexican bean beetle [6]; 1250 ppm) of 100% and a mortality at 39 ppm (large milkweed bug [7]; 39 ppm) of 95%. It also gave a mortality at 156 ppm (large milkweed bug [7]; 156 ppm) of 100%, a mortality at 1250 ppm (large milkweed bug [7]; 1250 ppm) of 100% and a mortality at 39 ppm (pea aphid [8]; 39 ppm) of 0%. It also gave a mortality at 156 ppm (pea aphid [8]; 156 ppm) of 83%, a mortality at 1250 ppm (pea aphid [8]; 1250 ppm) of 100% and a mortality at 39 ppm (twospotted spider mite; 39 ppm) of 5%. For the same compound, the mortality at 156 ppm (twospotted spider mite; 156 ppm) was 36%, the mortality at 1250 ppm (twospotted spider mite; 1250 ppm) was 100% and the “% Knockdown” value (house flies; 10 minutes after immersion) was 100%. For the same compound, the mortality at 5000 µg/mL (house flies; Musca domestica, after 18-24 hours, read-out: % Kill) was 100%, the mortality at 39 ppm (confused flour beetle [9]; 39 ppm) was 0% and the mortality at 156 ppm (confused flour beetle [9]; 156 ppm) was 0%. For the same compound, the mortality at 1250 ppm (confused flour beetle [9]; 1250 ppm) was 50%, the mortality at 0.001 mg (German cockroaches [10]; Blattella germanica, topical, read-out: % Kill) was 0% and the “% Knockdown” value (German cockroaches [10]; 30 minutes) was 0%. It also gave a mortality at 39 ppm (southern armyworm [11]; 39 ppm) of 0%, a mortality at 156 ppm (southern armyworm [11]; 156 ppm) of 0% and a mortality at 1250 ppm (southern armyworm [11]; 1250 ppm) of 43%. For the same compound, the mortality at 5000 µg/mL (German cockroaches [12]; Blattella germanica, 18-24 hours, read-out: % Kill) was 100%, the “% Knockdown” value (German cockroaches [12]; 30 minutes after immersion) was 100% and the mortality at 39 ppm (confused flour beetle [13]; 39 ppm) was 0%. For the same compound, the mortality at 156 ppm (confused flour beetle [13]; 156 ppm) was 0% and the mortality at 1250 ppm (confused flour beetle [13]; 1250 ppm) was 12%.
